According to PMC4022860, “Fragments of Bacterial Endoglycosidase S and Immunoglobulin G Reveal Subdomains of Each That Contribute to Deglycosylation” (The Journal of Biological Chemistry, 2014):

Biological target: T1, EndoS CBM (carbohydrate binding module of endoglycosidase S) (Streptococcus pyogenes, UniProt Q99Y92)
T1 construct: isolated CBM domain, residues 761-924, C-terminal hexahistidine tag (pET303), 15N-labelled, expressed in E. coli BL21(DE3)
Test: 1H, […] HSQC NMR titration
Details: 0.15 mM 15N-CBM; 62.5 mM to 2 M ligand; 10 mM BisTris, pH 6.5, 15 mM NaCl, 37 °C

T1 sequence (Q99Y92 761-924): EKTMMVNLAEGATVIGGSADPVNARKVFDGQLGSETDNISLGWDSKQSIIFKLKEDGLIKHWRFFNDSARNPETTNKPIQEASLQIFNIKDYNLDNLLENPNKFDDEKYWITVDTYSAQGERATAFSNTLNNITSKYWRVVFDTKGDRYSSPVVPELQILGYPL

OC[C@H]1OC(O)[C@H](O)[C@@H](O)[C@H]1O (stereo partly drawn) [D-galactose]
1H,15N HSQC NMR titration: four distinct peaks appeared upon D-galactose titration, which were visible from the lowest titration point
